Where two headings read alike, the source gives them in different places.

Series [1] deals with neonatal foreskin fibroblast (NFF) cells. Nature of the series: Mammalian toxicity using human neonatal foreskin fibroblast cells. The series is classed as cell-based. To be noted: for IC50: Homo sapiens, NFF, read-out: Mean IC50 ± SD, NFF; for SI (selectivity index = NFF cell-line IC50/P. falciparum IC50): range over 3D7 and Dd2 lines.
Series [2] concerns P. falciparum multidrug-resistant line (Dd2). Nature of the series: P. falciparum growth inhibition assay ([3H]-hypoxanthine isotopic microtest), Dd2 line. To be noted: Plasmodium falciparum, read-out: Mean IC50 ± SD, Dd2. The series is classed as cell-based.
Procedure: (§1) P. falciparum growth inhibition assays were carried out using an isotopic microtest, as previously described [16]. […] The final concentration of DMSO vehicle was <0.5% in all assay wells (non-toxic). After 48 h cells were harvested onto 1450 MicroBeta filter mats (PerkinElmer, Waltham, Massachusetts, USA) and [^3H] incorporation determined using a 1450 MicroBeta liquid scintillation counter. Percentage inhibition of growth compared to matched DMSO controls was determined and IC50 values were calculated using linear interpolation of inhibition curves [17]. The mean IC50 or % inhibition (±SD) was calculated for three independent experiments, each carried out in triplicate.
The subject of series [3] is P. falciparum chloroquine-sensitive line (3D7). Nature of the series: P. falciparum growth inhibition assay ([3H]-hypoxanthine isotopic microtest), 3D7 line. The format is cell-based, Plasmodium falciparum. To be noted: for IC50: Plasmodium falciparum, read-out: Mean IC50 ± SD, 3D7; for increase in 3D7 activity on exchanging saturated system (13, 14) for unsaturated motif: 15 vs 13, 16 vs 14.
Procedure: as §1

On the set-up of series [4]: method as in PMID 25490858. To be noted: administered subcutaneously to mice; remained above this level for 8 h; cited from earlier work.
On the set-up of series [5]: method as in PMID 25490858. To be noted: cited from earlier work.
Another series has as its system blood stage P. berghei. On the set-up: method as in PMID 25490858. To be noted: mice, subcutaneous 32 mg/kg twice daily for 4 d; cited from earlier work.
On the set-up of series [6]: method as in PMID 25490858. To be noted: subcutaneous 32 mg/kg twice daily for 4 d; cited from earlier work.
On the set-up of series [7]: method as in PMID 25490858. To be noted: cited from earlier work. This is another data set of the same source.
Another series has as its system Plasmodium falciparum. Nature of the series: In vitro P. falciparum growth inhibition (line not given). The series is classed as cell-based. To be noted: 3D7 and Dd2 lines.
Series [8] concerns P. falciparum chloroquine-sensitive line (3D7). The arrangement: method as in PMID 24032556. To be noted: chloroquine-sensitive (3D7) P. falciparum line; read-out: in vitro IC50, 3D7; cited from earlier work.
Series [9] has as its system P. falciparum multidrug-resistant line (Dd2). On the set-up: method as in PMID 24032556. To be noted: read-out: in vitro IC50, Dd2; cited from earlier work.
The mark [10] stands for this setting: neonatal foreskin fibroblast cells.
The mark [11] stands for this setting: P. falciparum multidrug-resistant line Dd2, 48 h, three independent experiments in triplicate.
Where [12] appears, read: P. falciparum chloroquine-sensitive line 3D7, 48 h, three independent experiments in triplicate.

Procedure for Plasmodium falciparum: as §1

As usually defined, the IC50 is the concentration at which inhibition is half-maximal. For `CCN(CC)CCCC(C)Nc1ccnc2cc(Cl)ccc12` (stereo not drawn) [CQ, chloroquine, reference compound], the IC50 is 36.5 µM in series [1]; 0.045 ± 0.01 µM in series [2] (DD2, 48 h); 0.0078 ± 0.0027 µM in series [3] (3D7, 48 h). Also, the “SI (selectivity index = NFF cell-line IC50/P. falciparum IC50)” value in [1] is listed as 811.1–4679.5.

Take `CC(=O)NCCc1c[nH]c2c1C(=O)C1=C(NC=CS1(=O)=O)C2=O` [Compound 8]: in series [4], the plasma concentration was greater than 200 nM. Moreover, the solubility result in series [5] is “good”. Further, the “suppression of blood stage P. berghei parasitemia relative to controls” value with blood stage P. berghei is on record as 52%. Besides, the tolerability in mice result in series [6] is recorded as “well tolerated”. Also, the metabolic stability result in [7] is listed as “good”.

Regarding `CCCCNC(=O)NCCc1c[nH]c2c1C(=O)C1=C(NC=CS1(=O)=O)C2=O` [Compound 9], the plasma concentration in [4] is greater than 200 nM. Besides, the solubility entry in series [5] was “good”. Besides, in the series with blood stage P. berghei, the “suppression of blood stage P. berghei parasitemia relative to controls” value is listed as 26%. Also, the tolerability in mice result in series [6] is listed as “well tolerated”. Besides, the metabolic stability entry in series [7] is reported as “good”.

In the case of `Cc1ccc(S(=O)(=O)n2ccc3c2C(=O)C=CC3=O)cc1` [Compound 10, 1-tosyl-1H-indole-4,7-dione], the IC50 in [1] (setting [10]) was determined as 7.6 ± 1.2 µM; in series [2] (setting [11]), 11.1 µM; in series [3] (setting [12]) it was 18.2 µM. In addition, in [1], the “SI (selectivity index = NFF cell-line IC50/P. falciparum IC50)” value is 0.4–0.7. For the same molecule, the “antiplasmodial activity” value in the series with Plasmodium falciparum is “essentially inactive”.

For `Cc1ccc(S(=O)(=O)n2ccc3c2C(=O)C2=C(NCCS2(=O)=O)C3=O)cc1` [Compound 11], the IC50 worked out at 1.4 ± 0.7 µM in series [1] (setting [10]), 0.509 ± 0.309 µM in series [2] (setting [11]) and 0.546 ± 0.119 µM in series [3] (setting [12]).

`Cc1ccc(S(=O)(=O)n2ccc3c2C(=O)C2=C(C3=O)S(=O)(=O)CCN2)cc1` [Compound 12]: the IC50 in series [1] (setting [10]) is 19 µM; in series [2] (setting [11]), 0.607 ± 0.158 µM; in series [3] (setting [12]), 0.834 ± 0.089 µM. The “SI (selectivity index = NFF cell-line IC50/P. falciparum IC50)” value in series [1] is listed as 22.8–31.3.

Regarding `O=C1C2=C(C(=O)c3[nH]ccc31)S(=O)(=O)CCN2` [Compound 13], the figures for the IC50 in [1] (setting [10]), in [2] (setting [11]) and in [3] (setting [12]) were 39 µM, 3.8 ± 0.4 µM and 7.5 ± 0.9 µM, respectively. Also, in series [1], the “SI (selectivity index = NFF cell-line IC50/P. falciparum IC50)” value was 5.2–10.3.

As to `O=C1C2=C(NCCS2(=O)=O)C(=O)c2[nH]ccc21` [Compound 14], the IC50 in series [1] (setting [10]) was determined as 69.6 µM; in series [2] (setting [11]) it was 3.7 ± 0.5 µM; in series [3] (setting [12]), 6.9 ± 0.7 µM. Moreover, the “SI (selectivity index = NFF cell-line IC50/P. falciparum IC50)” value in series [1] is 10.1–18.8.

On to `O=C1C2=C(C(=O)c3[nH]ccc31)S(=O)(=O)C=CN2` [Compound 15], for which the figures for the IC50 in series [1] (setting [10]), in series [2] (setting [11]) and in [3] (setting [12]) were 2.8 ± 0.4 µM, 0.129 ± 0.0039 µM and 0.313 ± 0.084 µM, respectively. Also, in [1], the “SI (selectivity index = NFF cell-line IC50/P. falciparum IC50)” value is 8.9–21.7. Moreover, the “increase in 3D7 activity on exchanging saturated system (13, 14) for unsaturated motif” value in series [3] is on record as 23.9 fold.

Take `O=C1C2=C(NC=CS2(=O)=O)C(=O)c2[nH]ccc21` [Compound 16]: the IC50 was found to be 4.6 ± 0.8 µM in series [1] (setting [10]), 0.127 ± 0.0086 µM in series [2] (setting [11]) and 0.252 ± 0.035 µM in series [3] (setting [12]). The “SI (selectivity index = NFF cell-line IC50/P. falciparum IC50)” value in series [1] is recorded as 18.2–36.2. Also, the “increase in 3D7 activity on exchanging saturated system (13, 14) for unsaturated motif” value in series [3] is given as 27.3 fold.

Regarding `O=C1C=CC(=O)c2[nH]ccc21` [Compound 17, 1H-indole-4,7-dione], the IC50 in series [1] (setting [10]) worked out at 4.7 ± 0.1 µM; in [2] (setting [11]), 11.5 µM; in [3] (setting [12]) it was 13.5 µM. In addition, the “SI (selectivity index = NFF cell-line IC50/P. falciparum IC50)” value in series [1] is on record as 0.3–0.4. Also, in the series on Plasmodium falciparum, the “antiplasmodial activity” value was “essentially inactive”.

`NCCc1c[nH]c2c1C(=O)C1=C(NC=CS1(=O)=O)C2=O` [Thiaplakortone A, thiaplakortone A]: the IC50 is 0.051 µM in series [8] and 0.0066 µM in [9].
